Where two headings read alike, the source gives them in different places.
Experiments:
ddy strain of male mice = assay: Acute toxicity (oral, general symptom and death observed for 7 days); type: in vivo; conditions: 7 days
Procedure: (§1) Next, several tests for determining the pharmacological properties, in that acute toxicity, anti-pyretic activity, analgesic activity and anti-inflammatory activity of the present 1,3,5-substituted biuret compounds of the formula (1) were conducted and the test results are shown in Table (2). In the tests, each compounds to be tested was used as a suspension in 0.25% carboxymethylcellulose solution. Methods for testing are explained as follows:
The ddy strain of male mice (body weight, 20-25 g) were used as test animals. The mice were fasted overnight and the compound to be tested was administered orally. […] The lethal dose (mg/kg, body weight) of the test compound was determined in connection with the death number of mice/the number of mice tested. In Table 2, the values indicated with Δ marks are 50% lethal dose, LD50 (mg/kg, body weight).

[1] = test system: acetic acid-induced stretching symptom of mouse; assay: Analgesic activity, acetic acid-induced stretching method; type: in vivo, mice (ddy strain, male)
Procedure: as §1
(1) Acetic acid-induced stretching method
According to the method reported by Koster et.al., [Fed. Proc., Vol. 18, pp. 412 (1959)], the ddy strain of male mice (body weight, 20-25 g) were used as test animals. The mice were fasted overnight, 100 mg/kg body weight of the test compound was administered orally, then 1 hour after the administration, 0.2 ml of 0.7% acetic acid solution was injected intraperitoneally. The acetic acid-induced stretching symptom of mouse was observed. Analgesic activity of the test compound was calculated as the inhibitory ratio (%). In Table 2, the values in parentheses show the data obtained from the test by using the dosage other than 100 mg/kg body weight. Further, the values indicated with Δ marks show 50% effective dose, ED50 (mg/kg body weight).

[2] = test system: pain reaction of the mouse caused by a clamp; assay: Analgesic activity, Haffner method; type: in vivo, mice (ddy strain, male); conditions: for Analgesic activity, Haffner method, inhibitory ratio: mice
Procedure: as §1
According to the modified method reported by Fujimura et al., [Bulletin of the Institute for Chemical Research, Kyoto University, No. 25, pp. 36 (1951)], the ddy strain of male mice (body weight, 20-25 g) were used as test animals. The mice were fasted overnight, 100 mg/kg body weight of the test compound was administered orally, then 45 minutes after the administration, the threshhold amount (1.5-2.5 mg/kg body weight) of morphine hydrochloride was injected subcutaneously. Then 1-hour pain reaction of the mouse caused by a clamp was observed. Analgesic activity of the test compound was calculated as the inhibitory ratio (%). In Table 2, the values in parentheses show the data obtained from the test by using the dosage other than 100 mg/kg body weight. Further, the values indicated with Δ marks show 50% effective dose, ED50 (mg/kg body weight).

[3] = test system: carrageenin-induced inflammation of the hindpaw of the rat; assay: Anti-inflammatory activity, acute carrageenin-induced inflammatory test; type: in vivo, rats (Wistar strain, male); conditions: Rattus norvegicus, read-out: Anti-inflammatory activity, inflammation inhibitory ratio; for inhibition in vivo at 200 mg/kg: 200 mg/kg oral
Procedure: as §1
4. Anti-inflammatory Activity
According to the method of acute carrageenin-induced inflammatory test [Folia Pharmacologia Japonica, Vol. 56, pp. 575 (1960)], the Wistar strain of male rats (body weight, 150-180 g) were used as test animals. The rats were fasted overnight, 100 mg/kg body weight of the test compound was administered orally, then 1 hour after the administration, 0.1 ml of 1% carrageenin solution, as the inflammation inducing agent, was injected subcutaneously to the hindpaw of the rat and the volume of the hindpaw was measured at time sequences. Anti-inflammatory activity of the test compound was calculated as inflammation inhibitory ratio (%) at 3 hours after the injection of inflammation inducing agent.

[4] = po, read-out: Analgesic activity, acetic acid-induced stretching method, inhibitory ratio
[5] = 100 mg/kg oral, rats, 3 hours after carrageenin
[6] = 100 mg/kg oral, mice, read-out: Analgesic activity, acetic acid-induced stretching method, inhibitory ratio
[7] = rats, 3 hours after carrageenin

SMILES: CCNC(=O)NC(=O)NCc1ccccc1 [compound 29, 1-Ethyl-5-benzylbiuret]
- Acute toxicity, death number of mice/number of mice tested (ddy strain of male mice; 1000 mg/kg oral): 0/4
- Acute toxicity, death number of mice/number of mice tested (ddy strain of male mice; 2000 mg/kg oral): 1/4
- inhibition in vivo at 100 mg/kg [1, 4]: 12.5%
- Analgesic activity, Haffner method, inhibitory ratio ([2]; 100 mg/kg oral): 25%
- inhibition in vivo at 100 mg/kg [3, 5]: 31%

SMILES: CCNC(=O)NC(=O)Nc1ccccn1 [compound 30, 1-Ethyl-5-(2-pyridyl)biuret]
- Acute toxicity, death number of mice/number of mice tested (ddy strain of male mice; 1000 mg/kg oral): 0/4
- Acute toxicity, death number of mice/number of mice tested (ddy strain of male mice; 2000 mg/kg oral): 3/4
- Analgesic activity, Haffner method, inhibitory ratio ([2]; 100 mg/kg oral): 37.5%
- inhibition in vivo at 100 mg/kg ([3]; po, 3 h): 30%

SMILES: CCNC(=O)N(C)C(=O)Nc1ccc(O)cc1 [compound 34, 1-Ethyl-3-methyl-5-(4-hydroxyphenyl)biuret]
- Acute toxicity, death number of mice/number of mice tested (ddy strain of male mice; 2000 mg/kg oral): 0/4
- inhibition in vivo at 100 mg/kg [1, 6]: 25%
- Analgesic activity, Haffner method, inhibitory ratio ([2]; 100 mg/kg oral): 12.5%
- inhibition in vivo at 100 mg/kg [3, 5]: 19%

SMILES: CCCNC(=O)NC(=O)NCc1ccccc1 [compound 42]
- Acute toxicity, death number of mice/number of mice tested (ddy strain of male mice; 2000 mg/kg oral): 0/4
- inhibition in vivo at 200 mg/kg ([1]; 200 mg/kg oral, mice, read-out: Analgesic activity, acetic acid-induced stretching method, inhibitory ratio): 82.5%
- Analgesic activity, Haffner method, inhibitory ratio ([2]; 200 mg/kg oral): 50%
- inhibition in vivo at 200 mg/kg [3, 7]: 31%

SMILES: CCCCNC(=O)NC(=O)Nc1ccccc1 [compound 46]
- Acute toxicity, death number of mice/number of mice tested (ddy strain of male mice; 2000 mg/kg oral): 0/4
- Analgesic activity, Haffner method, inhibitory ratio ([2]; 200 mg/kg oral): 25%
- inhibition in vivo at 200 mg/kg [3, 7]: 84%

SMILES: CCCCNC(=O)NC(=O)NCc1ccccc1 [compound 48]
- Acute toxicity, death number of mice/number of mice tested (ddy strain of male mice; 2000 mg/kg oral): 0/4
- ED50 ([1]; oral, mice (Δ values; range in parentheses), read-out: Analgesic activity, acetic acid-induced stretching method, 50% effective dose ED50): 111 mg/kg
- ED50 ([2]; Mus musculus, oral, mice (Δ values; range in parentheses), read-out: Analgesic activity, Haffner method, 50% effective dose ED50): 110 mg/kg
- inhibition in vivo at 200 mg/kg [3, 7]: 46%

SMILES: CN(C(=O)NCCCl)C(=O)Nc1ccccc1 [compound 53, 1-(2-Chloroethyl)-3-methyl-5-phenylbiuret]
- Acute toxicity, death number of mice/number of mice tested (ddy strain of male mice; 2000 mg/kg oral): 0/4
- inhibition in vivo at 100 mg/kg [1, 4]: 12.5%
- Analgesic activity, Haffner method, inhibitory ratio ([2]; 100 mg/kg oral): 25%
- inhibition in vivo at 100 mg/kg ([3]; po, 3 h): 40%

SMILES: CN(C(=O)NCCC#N)C(=O)Nc1ccccc1 [compound 54, 1-(2-Cyanoethyl)-3-methyl-5-phenylbiuret]
- Acute toxicity, death number of mice/number of mice tested (ddy strain of male mice; 1000 mg/kg oral): 0/4
- Acute toxicity, death number of mice/number of mice tested (ddy strain of male mice; 2000 mg/kg oral): 3/4
- inhibition in vivo at 100 mg/kg [1, 4]: 50%
- Analgesic activity, Haffner method, inhibitory ratio ([2]; 100 mg/kg oral): 12.5%
- inhibition in vivo at 100 mg/kg [3, 5]: 39%

SMILES: CN(C(=O)NCC(O)CO)C(=O)Nc1ccccc1 (stereo not shown) [compound 58, 1-(2,3-Dihydroxypropyl)-3-methyl-5-phenylbiuret]
- Acute toxicity, death number of mice/number of mice tested (ddy strain of male mice; 2000 mg/kg oral): 0/4
- inhibition in vivo at 100 mg/kg [1, 4]: 37.5%
- Analgesic activity, Haffner method, inhibitory ratio ([2]; 100 mg/kg oral): 37.5%

SMILES: COCCNC(=O)N(C)C(=O)Nc1ccccc1 [compound 59, 1-(2-Methoxyethyl)-3-methyl-5-phenylbiuret]
- Acute toxicity, death number of mice/number of mice tested (ddy strain of male mice; 1000 mg/kg oral): 1/4
- Acute toxicity, death number of mice/number of mice tested (ddy strain of male mice; 2000 mg/kg oral): 4/4
- inhibition in vivo at 100 mg/kg [1, 6]: 25%
- Analgesic activity, Haffner method, inhibitory ratio ([2]; 100 mg/kg oral): 25%

SMILES: CN(C(=O)NCC(=O)O)C(=O)Nc1ccccc1 [compound 60, 1-Carboxymethyl-3-methyl-5-phenylbiuret]
- Acute toxicity, death number of mice/number of mice tested (ddy strain of male mice; 2000 mg/kg oral): 0/4
- inhibition in vivo at 100 mg/kg [1, 6]: 25%
- Analgesic activity, Haffner method, inhibitory ratio ([2]; 100 mg/kg oral): 25%

SMILES: CC(=O)NC(=O)N(C)C(=O)Nc1ccccc1 [compound 61, 1-Acetyl-3-methyl-5-phenylbiuret]
- Acute toxicity, death number of mice/number of mice tested (ddy strain of male mice; 2000 mg/kg oral): 0/4
- inhibition in vivo at 100 mg/kg [1, 4]: 50%
- Analgesic activity, Haffner method, inhibitory ratio ([2]; 100 mg/kg oral): 12.5%

SMILES: CN(C(=O)NO)C(=O)Nc1ccccc1 [compound 62, 1-Hydroxy-3-methyl-5-phenylbiuret]
- Acute toxicity, death number of mice/number of mice tested (ddy strain of male mice; 1000 mg/kg oral): 0/4
- Acute toxicity, death number of mice/number of mice tested (ddy strain of male mice; 2000 mg/kg oral): 1/4
- Analgesic activity, Haffner method, inhibitory ratio ([2]; 100 mg/kg oral): 25%

SMILES: CN(C(=O)Nc1ccccc1)C(=O)Nc1ccccc1 [compound 64]
- Acute toxicity, death number of mice/number of mice tested (ddy strain of male mice; 2000 mg/kg oral): 0/4
- inhibition in vivo at 100 mg/kg [1, 4]: 37.5%
- Analgesic activity, Haffner method, inhibitory ratio ([2]; 200 mg/kg oral): 12.5%
